Molecules are shown by their SMILES. Calls of active or inactive are those of the source. The rule behind the calls is not given here.

For assay [1], the system named is MCF7. In words: MDR-reversal in paclitaxel-resistant […] cell growth assay as reduction of IC50 at 0.1uM. Format: functional, cell-based, Homo sapiens.
In assay [2] the test system is MCF7. Put plainly: MDR-reversal in paclitaxel-resistant […] cell growth assay as reduction of IC50 at 1uM. In kind it is functional, cell-based, Homo sapiens.
Assay [3] deals with MCF7. Put plainly: MDR-reversal in paclitaxel-resistant […] cell growth assay. Format: functional, cell-based. Conditions: Homo sapiens.

As to `C=C1[C@@H](OC(=O)/C=C/c2ccccc2)C[C@H](OC(C)=O)[C@]2(C)[C@@H]1C[C@@H]1C[C@H](OC(C)=O)[C@]3(C)O[C@@]3([C@@H]1C)[C@@H](OC(C)=O)[C@@H]2OC(C)=O`, in the assay with MCF7 [1], the IC50 reduction was 22%. For the same molecule, the “percent reduction of paclitaxel IC50” value with MCF7 [2] was determined as 92%.
As for `C=C1[C@@H](OC(=O)/C=C/c2ccccc2)C[C@H](OC(C)=O)[C@]2(C)[C@@H]1C[C@@H]1C[C@H](OC(=O)/C=C/c3ccccc3)C(C)=C([C@@H](OC(C)=O)[C@@H]2OC(C)=O)[C@@H]1C`, the result in the assay with MCF7 [3] was inactive.
On to `C=C1[C@H]2C[C@@H]3C[C@H](OC(=O)[C@@H](O)Cc4ccccc4)C(C)=C([C@@H](OC(C)=O)[C@H](OC(C)=O)[C@]2(C)[C@@H](OC(C)=O)C[C@@H]1O)[C@@H]3C`, for which the IC50 reduction with MCF7 [1] amounted to 24%. Also, the “percent reduction of paclitaxel IC50” value in the assay on MCF7 [2] turned out to be 89%.
For `CC(=O)O[C@H]1C[C@H]2C[C@@H]3[C@]4(CO4)[C@@H](OC(=O)/C=C/c4ccccc4)C[C@H](OC(C)=O)[C@@]3(C)[C@@H](OC(C)=O)[C@H](OC(C)=O)C(=C1C)[C@@H]2C`, in the assay with MCF7 [2], the “percent reduction of paclitaxel IC50” value is 85%.
For `C=C1[C@@H](OC(=O)c2ccccc2)C[C@H](OC(C)=O)[C@]2(C)[C@@H]1C[C@@H]1C[C@H](OC(C)=O)C(C)=C(C1C)[C@@H](OC(C)=O)[C@@H]2OC(C)=O` (single isomer, unassigned), in the assay on MCF7 [3], the outcome was inactive.
For `C=C1[C@H]2C[C@@H]3C[C@H](OC(=O)[C@H](O)[C@H](CC(C)C)NC(=O)OC(C)(C)C)C(C)=C([C@@H](OC(C)=O)[C@H](OC(C)=O)[C@]2(C)[C@@H](OC(C)=O)C[C@@H]1O)[C@@H]3C`, the “percent reduction of paclitaxel IC50” value in the assay on MCF7 [2] is recorded as 93%.
`C=C1[C@@H](O[Si](CC)(CC)CC)C[C@H](OC(C)=O)[C@]2(C)[C@@H]1C[C@@H]1C[C@H](OC(C)=O)C(C)=C(C1C)[C@@H](OC(C)=O)[C@@H]2OC(C)=O` (single isomer, unassigned): the “percent reduction of paclitaxel IC50” value in the assay with MCF7 [2] worked out at 92%.
As to `C=C1[C@@H](OC(=O)/C=C/c2ccccc2)C[C@H](OC(C)=O)[C@]2(C)[C@@H]1C[C@@H]1C[C@H](OC(=O)[C@@H]3OC(c4ccc(OC)cc4OC)N(C(=O)OC(C)(C)C)[C@H]3CC(C)C)C(C)=C([C@@H](OC(C)=O)[C@@H]2OC(C)=O)[C@@H]1C` (some centres undefined), the result in the assay on MCF7 [3] was inactive.
Turning to `C=C1[C@H]2C[C@@H]3C[C@H](OC(=O)/C=C/c4ccccc4)C(C)=C([C@@H](OC(C)=O)[C@H](OC(C)=O)[C@]2(C)[C@@H](OC(C)=O)C[C@@H]1O)[C@@H]3C`, the IC50 reduction with MCF7 [1] was 35%. In the assay on MCF7 [2], the “percent reduction of paclitaxel IC50” value worked out at 92%.
As for `C=C1[C@H]2C[C@@H]3C[C@H](OC(=O)c4ccccc4)C(C)=C([C@@H](OC(C)=O)[C@H](OC(C)=O)[C@]2(C)[C@@H](OC(C)=O)C[C@@H]1O)[C@@H]3C`, the IC50 reduction with MCF7 [1] was 67%. The “percent reduction of paclitaxel IC50” value in the assay with MCF7 [2] was 95%.
As to `C=C1[C@@H](OC(=O)/C=C/c2ccccc2)C[C@H](OC(C)=O)[C@]2(C)[C@@H]1C[C@@H]1C[C@H](OC(=O)C(O)[C@@H](CC(C)C)NC(=O)OC(C)(C)C)C(C)=C([C@@H](OC(C)=O)[C@@H]2OC(C)=O)[C@@H]1C` (some centres undefined), the result in the assay on MCF7 [3] was inactive.
As to `CC(=O)O[C@H]1C[C@H](OC(=O)/C=C/c2ccccc2)[C@@]2(CO2)[C@H]2C[C@@H]3C[C@H](OC(C)=O)[C@]4(C)O[C@@]4([C@@H]3C)[C@@H](OC(C)=O)[C@H](OC(C)=O)[C@]12C`, the IC50 reduction in the assay with MCF7 [1] is on record as 2%. Further, the “percent reduction of paclitaxel IC50” value in the assay on MCF7 [2] came to 70%.
Regarding `C=C1[C@@H](OC(=O)[C@@H]2OC(c3ccc(OC)cc3OC)N(C(=O)OC(C)(C)C)[C@H]2CC(C)C)C[C@H](OC(C)=O)[C@]2(C)[C@@H]1C[C@@H]1C[C@H](OC(C)=O)C(C)=C([C@@H](OC(C)=O)[C@@H]2OC(C)=O)[C@@H]1C` (some centres undefined), the outcome with MCF7 [3] was inactive.
Consider `C=C1[C@H]2C[C@@H]3C[C@H](O)C(C)=C([C@@H](OC(C)=O)[C@H](OC(C)=O)[C@]2(C)[C@@H](OC(C)=O)C[C@@H]1O)[C@@H]3C`, for which, in the assay with MCF7 [2], the “percent reduction of paclitaxel IC50” value is reported as 47%.

The record behind these values is ChEMBL document CHEMBL1144603, “Synthesis and biological evaluation of new taxoids derived from 2-deacetoxytaxinine J” (Bioorg Med Chem Lett, 2007).
